The record followed here is BindingDB's records for doi:10.1021/jm950932r (National Institute of Diabetes and Digestive and Kidney …, 1996).

The term EC50 denotes the concentration at which the effect is half-maximal. Read a high EC50 as lower potency in that assay.

A short description of the assay: Compound was evaluated for inhibition of hormone stimulated Adenylate cyclase activity in N18TG2 membranes.
For `O=C(c1cccc2ccccc12)c1cn(CCN2CCOCC2)c2ccccc12`, the EC50 amounted to 275 nM. `Cc1c(C(=O)c2cccc3ccccc23)c2ccccc2n1CCN1CCOCC1` came in with an EC50 of 370 nM. The EC50 values of the last two molecules are within 1.5-fold of each other. In the case of `Cc1c(C(=O)c2ccc(N=C=S)c3ccccc23)c2ccccc2n1CCN1CCOCC1` [(4-Isothiocyanato-naphthalen-1-yl)-[2-methyl-1-(2-morpholin-4-yl-ethyl)-1H-indol-3-yl]-methanone] it was 3000 nM; in that of `O=C(c1cccc2ccccc12)c1cn(CCN2CCOCC2)c2cc(N=C=S)ccc12` [[6-Isothiocyanato-1-(2-morpholin-4-yl-ethyl)-1H-indol-3-yl]-naphthalen-1-yl-methanone], 1100 nM.
